Patent publication US6710049B2, “Azole compounds as anti-fungal agents” (Ranbaxy Laboratories Limited, priority 2000, dated 2004)
In brackets after ≈: the same amount, converted by molar mass.

Tests used:
P variotii 22319 [1] = assay: MIC determination (NCCLS broth method); assay type: cell-based, Paecillomyces variotii; conditions: read-out: Minimum Inhibitory Concentration (MIC)
Excerpt: (§1) The in-vitro evaluation of the antifungal activity of the compounds can be performed by determining the minimum inhibitory concentration (MIC) as shown in Table 1 which is the concentration of the test compound in Rosewell Park Memorial Institute (RPMI) 1640 liquid medium buffered with 3-(Morpholino)propanesulphonic acid (MOPS) to pH 7, at which there is significant inhibition of the particular fungi. In practice the National Committee for Clinical Laboratory Standard (NCCLS) M27A document for Candida and Cryptococcus and M38P for Aspergillus was used to determine the MIC against yeast and filamentous fungi with suitable modifications for dermatophytes to other filamentous fungi. Three quality control strains were included each time the MIC were determined and readings recorded only when the Quality Control results fell into the acceptable range. After MIC results had been recorded, 100 μl from each of the well showing no growth was spread over Sabouraud Dextrose Agar (SDA) to determine the minimum fungicidal concentration (MFC) as shown in Table 2.

C albicans A-26 = assay: MIC determination (NCCLS broth method); assay type: cell-based, Candida albicans; conditions: Candida albicans, A26, read-out: Minimum Inhibitory Concentration (MIC)
Excerpt: as §1

C albicans Y01.19 = assay: MIC determination (NCCLS broth method); assay type: cell-based, Candida albicans; conditions: Candida albicans, read-out: Minimum Inhibitory Concentration (MIC)
Excerpt: as §1

A flavus E2 - 1043 = assay: MIC determination (NCCLS broth method); assay type: cell-based; conditions: read-out: Minimum Inhibitory Concentration (MIC)
Excerpt: as §1

A flavus E3 - 1044 = assay: MIC determination (NCCLS broth method); assay type: cell-based; conditions: read-out: Minimum Inhibitory Concentration (MIC)
Excerpt: as §1

A flavus E4 - 1042 = assay: MIC determination (NCCLS broth method); assay type: cell-based; conditions: read-out: Minimum Inhibitory Concentration (MIC)
Excerpt: as §1

A flavus P2 - 1045 = assay: MIC determination (NCCLS broth method); assay type: cell-based; conditions: read-out: Minimum Inhibitory Concentration (MIC)
Excerpt: as §1

A flavus P3 - 1041 = assay: MIC determination (NCCLS broth method); assay type: cell-based; conditions: read-out: Minimum Inhibitory Concentration (MIC)
Excerpt: as §1

A niger E5 - 1047 = assay: MIC determination (NCCLS broth method); assay type: cell-based; conditions: read-out: Minimum Inhibitory Concentration (MIC)
Excerpt: as §1

A niger P1 - 1046 = assay: MIC determination (NCCLS broth method); assay type: cell-based; conditions: read-out: Minimum Inhibitory Concentration (MIC)
Excerpt: as §1

Alternaria 1051 = assay: MIC determination (NCCLS broth method); assay type: cell-based; conditions: read-out: Minimum Inhibitory Concentration (MIC)
Excerpt: as §1

C glabrata 90030 = assay: MIC determination (NCCLS broth method); assay type: cell-based; conditions: read-out: Minimum Inhibitory Concentration (MIC)
Excerpt: as §1

C krusei 6258 = assay: MIC determination (NCCLS broth method); assay type: cell-based; conditions: read-out: Minimum Inhibitory Concentration (MIC)
Excerpt: as §1

C krusei 766.1 = assay: MIC determination (NCCLS broth method); assay type: cell-based; conditions: read-out: Minimum Inhibitory Concentration (MIC)
Excerpt: as §1

C parapsilosis 22019 = assay: MIC determination (NCCLS broth method); assay type: cell-based; conditions: read-out: Minimum Inhibitory Concentration (MIC)
Excerpt: as §1

C tropicalis 750 = assay: MIC determination (NCCLS broth method); assay type: cell-based; conditions: read-out: Minimum Inhibitory Concentration (MIC)
Excerpt: as §1

Fusarium 1050 = assay: MIC determination (NCCLS broth method); assay type: cell-based; conditions: read-out: Minimum Inhibitory Concentration (MIC)
Excerpt: as §1

Fusarium 1827C = assay: MIC determination (NCCLS broth method); assay type: cell-based; conditions: read-out: Minimum Inhibitory Concentration (MIC)
Excerpt: as §1

Fusarium 2960C = assay: MIC determination (NCCLS broth method); assay type: cell-based; conditions: read-out: Minimum Inhibitory Concentration (MIC)
Excerpt: as §1

Mucor (Ceylon) = assay: MIC determination (NCCLS broth method); assay type: cell-based; conditions: read-out: Minimum Inhibitory Concentration (MIC)
Excerpt: as §1

Penicillium 1641 = assay: MIC determination (NCCLS broth method); assay type: cell-based; conditions: read-out: Minimum Inhibitory Concentration (MIC)
Excerpt: as §1

Penicillium 191 = assay: MIC determination (NCCLS broth method); assay type: cell-based; conditions: read-out: Minimum Inhibitory Concentration (MIC)
Excerpt: as §1

Penicillium 2548 = assay: MIC determination (NCCLS broth method); assay type: cell-based; conditions: read-out: Minimum Inhibitory Concentration (MIC)
Excerpt: as §1

Penicillium 3162 = assay: MIC determination (NCCLS broth method); assay type: cell-based; conditions: read-out: Minimum Inhibitory Concentration (MIC)
Excerpt: as §1

Penicillium H - 1048 = assay: MIC determination (NCCLS broth method); assay type: cell-based; conditions: H1048, read-out: Minimum Inhibitory Concentration (MIC)
Excerpt: as §1

Penicillium I - 1049 = assay: MIC determination (NCCLS broth method); assay type: cell-based; conditions: I1049, read-out: Minimum Inhibitory Concentration (MIC)
Excerpt: as §1

Rhizopus (Ceylon) = assay: MIC determination (NCCLS broth method); assay type: cell-based; conditions: read-out: Minimum Inhibitory Concentration (MIC)
Excerpt: as §1

Rhizopus 1052 = assay: MIC determination (NCCLS broth method); assay type: cell-based; conditions: read-out: Minimum Inhibitory Concentration (MIC)
Excerpt: as §1

C neoformans I = assay: MIC determination (NCCLS broth method); assay type: cell-based, Cryptococcus neoformans; conditions: Cryptococcus neoformans, read-out: Minimum Inhibitory Concentration (MIC)
Excerpt: as §1

C neoformans M-106 = assay: MIC determination (NCCLS broth method); assay type: cell-based, Cryptococcus neoformans; conditions: Cryptococcus neoformans, M106, read-out: Minimum Inhibitory Concentration (MIC)
Excerpt: as §1

A fumigatus SI-1 - 1019 = assay: MIC determination (NCCLS broth method); assay type: cell-based, Aspergillus fumigatus; conditions: Aspergillus fumigatus, SI11019, read-out: Minimum Inhibitory Concentration (MIC)
Excerpt: as §1

P variotii 22319 [2] = assay: MFC determination (subculture on Sabouraud Dextrose Agar); assay type: cell-based, Paecillomyces variotii; conditions: read-out: Minimum Fungicidal Concentration (MFC)
Excerpt: as §1

All Candida isolates = assay: Comparative in vitro MIC, isolate panel; assay type: cell-based
Excerpt: as §1
(§2) A comparative in vitro and in vivo biologically activity data of the compound of our invention, 2-{[1R,2R]-2-(2,4-Difluorophenyl)-2-hydroxy-1-methyl-3-(1H-1,2,4-triazole-1-yl)propyl}-4-[(2′,2′,3′,3′-tetrafluoropropoxyphenyl)-3-(2H,4H)-1,2,4-thiotriazolone (Compound No. 3) with 2-[(1R,2R)-2-(2,4-difluorophenyl)-2-hydroxy-1-methyl-3-(1H-1,2,4-triazol-1-yl)propyl]-4-(2′,2′,3′,3′-tetraflouropropoxyphenyl)-3(2H,4H)-1,2,4-triazolone (TAK 187) and standard antifungal pharmaceuticals is given below: […]

All Filamentous isolates = assay: Comparative in vitro MIC, isolate panel; assay type: cell-based
Excerpt: as §1, §2

All fungal pathogens = assay: Comparative in vitro MIC, isolate panel; assay type: cell-based
Excerpt: as §1, §2

[3] = tested on: Aspergillus fumigatus isolates; assay: Comparative in vitro MIC, isolate panel; assay type: cell-based
Excerpt: as §1, §2

Fusarium spp. isolates = assay: Comparative in vitro MIC, isolate panel; assay type: cell-based
Excerpt: as §1, §2

[4] = tested on: Penicillium spp. isolates; assay: Comparative in vitro MIC, isolate panel; assay type: cell-based
Excerpt: as §1, §2

Rhizoupus spp. isolates = assay: Comparative in vitro MIC, isolate panel; assay type: cell-based
Excerpt: as §1, §2

Q: For CCC(C)n1ncn(-c2ccc(N3CCN(c4ccc(OCC5COC(Cn6cncn6)(c6ccc(Cl)cc6Cl)O5)cc4)CC3)cc2)c1=O (centres unmarked) [Itraconazole], which MIC (P variotii 22319 [1]) is on record?
A: 0.016 µg/mL (≈ 0.0227 µM)

Q: What about the MIC (C albicans A-26) of the same molecule?
A: 0.016 µg/mL (≈ 0.0227 µM)

Q: And the MIC (C albicans Y01.19)?
A: 0.25 µg/mL (≈ 0.354 µM)

Q: What about the MIC (A flavus E2 - 1043) of the same molecule?
A: 0.03 µg/mL (≈ 0.0425 µM)

Q: What about the MIC (A flavus E3 - 1044) of the same molecule?
A: 0.03 µg/mL (≈ 0.0425 µM)

Q: And the MIC (A flavus E4 - 1042)?
A: 0.06 µg/mL (≈ 0.085 µM)

Q: What about the MIC (A flavus P2 - 1045) of the same molecule?
A: 0.06 µg/mL (≈ 0.085 µM)

Q: And the MIC (A flavus P3 - 1041)?
A: 0.06 µg/mL (≈ 0.085 µM)

Q: And the MIC (A niger E5 - 1047)?
A: 0.03 µg/mL (≈ 0.0425 µM)

Q: What about the MIC (A niger P1 - 1046) of the same molecule?
A: 0.125 µg/mL (≈ 0.177 µM)

Q: And the MIC (Alternaria 1051)?
A: 0.125 µg/mL (≈ 0.177 µM)

Q: And the MIC (C glabrata 90030)?
A: 0.5 µg/mL (≈ 0.709 µM)

Q: And the MIC (C krusei 6258)?
A: 0.25 µg/mL (≈ 0.354 µM)

Q: What about the MIC (C krusei 766.1) of the same molecule?
A: 0.5 µg/mL (≈ 0.709 µM)

Q: What about the MIC (C parapsilosis 22019) of the same molecule?
A: 0.03 µg/mL (≈ 0.0425 µM)

Q: And the MIC (C tropicalis 750)?
A: 0.016 µg/mL (≈ 0.0227 µM)

Q: And the MIC (Fusarium 1050)?
A: 64 µg/mL (≈ 90.7 µM)

Q: What about the MIC (Fusarium 1827C) of the same molecule?
A: 128 µg/mL (≈ 181 µM)

Q: What about the MIC (Fusarium 2960C) of the same molecule?
A: 16 µg/mL (≈ 22.7 µM)

Q: And the MIC (Mucor (Ceylon))?
A: 0.125 µg/mL (≈ 0.177 µM)

Q: And the MIC (Penicillium 1641)?
A: 0.25 µg/mL (≈ 0.354 µM)

Q: And the MIC (Penicillium 191)?
A: 0.06 µg/mL (≈ 0.085 µM)

Q: And the MIC (Penicillium 2548)?
A: 0.25 µg/mL (≈ 0.354 µM)

Q: And the MIC (Penicillium 3162)?
A: 0.25 µg/mL (≈ 0.354 µM)

Q: And the MIC (Penicillium H - 1048)?
A: 16 µg/mL (≈ 22.7 µM)

Q: And the MIC (Penicillium I - 1049)?
A: 16 µg/mL (≈ 22.7 µM)

Q: What about the MIC (Rhizopus (Ceylon)) of the same molecule?
A: 64 µg/mL (≈ 90.7 µM)

Q: And the MIC (Rhizopus 1052)?
A: 16 µg/mL (≈ 22.7 µM)

Q: What about the MIC (C neoformans I) of the same molecule?
A: 0.03 µg/mL (≈ 0.0425 µM)

Q: And the MIC (C neoformans M-106)?
A: 0.03 µg/mL (≈ 0.0425 µM)

Q: And the MIC (A fumigatus SI-1 - 1019)?
A: 0.03 µg/mL (≈ 0.0425 µM)

Q: And the MFC (P variotii 22319 [2])?
A: 0.06 µg/mL (≈ 0.085 µM)

Q: What about the MIC (All Candida isolates) of the same molecule?
A: 0.1 µg/mL (≈ 0.142 µM)

Q: What about the MIC50 (All Candida isolates; read-out: MIC50) of the same molecule?
A: 0.25 µg/mL (≈ 0.354 µM)

Q: What about the MIC90 (All Candida isolates; read-out: MIC90) of the same molecule?
A: 0.5 µg/mL (≈ 0.709 µM)

Q: And the MIC (All Filamentous isolates)?
A: 0.6 µg/mL (≈ 0.85 µM)

Q: And the MIC50 (All Filamentous isolates; read-out: MIC50)?
A: 0.25 µg/mL (≈ 0.354 µM)

Q: And the MIC90 (All Filamentous isolates; read-out: MIC90)?
A: 256 µg/mL (≈ 363 µM)

Q: And the MIC (All fungal pathogens)?
A: 0.437 µg/mL (≈ 0.619 µM)

Q: What about the MIC50 (All fungal pathogens; read-out: MIC50) of the same molecule?
A: 0.19 µg/mL (≈ 0.269 µM)

Q: And the MIC90 (All fungal pathogens; read-out: MIC90)?
A: 256 µg/mL (≈ 363 µM)

Q: What about the MIC [3] of the same molecule?
A: 0.181 µg/mL (≈ 0.257 µM)

Q: And the MIC50 ([3]; read-out: MIC50)?
A: 0.25 µg/mL (≈ 0.354 µM)

Q: What about the MIC90 ([3]; read-out: MIC90) of the same molecule?
A: 0.5 µg/mL (≈ 0.709 µM)

Q: What about the MIC (Fusarium spp. isolates) of the same molecule?
A: 90.5 µg/mL (≈ 128 µM)

Q: And the MIC50 (Fusarium spp. isolates; read-out: MIC50)?
A: 64 µg/mL (≈ 90.7 µM)

Q: And the MIC90 (Fusarium spp. isolates; read-out: MIC90)?
A: 256 µg/mL (≈ 363 µM)

Q: What about the MIC [4] of the same molecule?
A: 0.922 µg/mL (≈ 1.31 µM)

Q: And the MIC50 ([4]; read-out: MIC50)?
A: 0.5 µg/mL (≈ 0.709 µM)

Q: And the MIC90 ([4]; read-out: MIC90)?
A: 256 µg/mL (≈ 363 µM)

Q: What about the MIC (Rhizoupus spp. isolates) of the same molecule?
A: 32 µg/mL (≈ 45.3 µM)

Q: And the MIC50 (Rhizoupus spp. isolates; read-out: MIC50)?
A: 16 µg/mL (≈ 22.7 µM)

Q: And the MIC90 (Rhizoupus spp. isolates; read-out: MIC90)?
A: 64 µg/mL (≈ 90.7 µM)
